Data set [1] concerns Human immunodeficiency virus 1. Description: Antiviral activity against HIV1 harboring RT K103N/Y181C double mutant infected in human MT4 cells assessed as inhibition of viral cytopathogenicity after 5 days by MTT assay. Type of data set: functional, organism-based. The conditions noted are these: Human immunodeficiency virus 1, MT4, 120 h. On the technique in general: Damage to the host cells serves as the signal in cytopathic effect assays.

Data set [2] deals with Human immunodeficiency virus 2. Description: Antiviral activity against HIV2 ROD infected in human MT4 cells assessed as inhibition of viral cytopathogenicity after 5 days by MTT assay. Type of data set: functional, organism-based. The note with it: Human immunodeficiency virus 2, ISOLATE ROD, MT4, 120 h.
The nature of data set [3]: Cytotoxicity against mock-infected human MT4 cells after 5 days by MTT assay. Type of data set: cell-based. (Tetrazolium assays rely on reduction of a dye to a coloured formazan, in cell work by metabolically active cells.)
The subject of data set [4] is Human immunodeficiency virus 1. Briefly: Antiviral activity against HIV1 3B infected in human MT4 cells assessed as inhibition of viral cytopathogenicity after 5 days by MTT assay. Type of data set: functional, organism-based. The note with it: Human immunodeficiency virus 1, 3B, MT4, 120 h.
For data set [5], the target named is Human immunodeficiency virus type 1 reverse transcriptase (Human immunodeficiency virus 1, UniProt Q72547). Briefly: Inhibition of wild-type HIV1 reverse transcriptase p66/p51 after 40 mins by spectrophotometry.
In data set [6] the test system is Human immunodeficiency virus 1. Briefly: Ratio of delaviridine EC50 to compound EC50 for HIV1 3B infected in human MT4 cells. Type of data set: functional.
The test system of data set [7] is Human immunodeficiency virus 1. Briefly: Ratio of nevirapine EC50 to compound EC50 for HIV1 3B infected in human MT4 cells. Type of data set: functional.

Each structure is given as a SMILES string.

Regarding `COc1ccc(C(C)(O)c2ccnc(Nc3ccc(C#N)cc3)n2)cc1` (configuration not stated), the figures for the EC50 in data set [1], in data set [2] and in data set [4] were more than 35.9 µM, more than 35.9 µM and 346 nM, respectively. In data set [3], this compound yielded a CC50 at 120 h of 35.9 µM.
As to `CC(C)(C)c1ccc(C(C)(O)c2ccnc(Nc3ccc(C#N)cc3)n2)cc1` (configuration not stated), the EC50 in data set [1] is more than 31.8 µM; in data set [2], more than 31.8 µM; in data set [4], 564 nM. The compound further gave a 50% cytotoxic concentration (CC50) at 120 h in data set [3] of 31.8 µM.
In data set [5], `CC(O)(c1ccccc1)c1ccnc(Nc2ccc(C#N)cc2)n1` (configuration not stated) displayed an IC50 of 2000 nM. For the same compound, the EC50 in data set [1] is more than 45.4 µM; in data set [2], more than 45.4 µM; in data set [4], 288 nM. In data set [3], this compound showed a half-maximal cytotoxic concentration (CC50) at 120 h of 45.4 µM.
`Cc1ccc(C(C)(O)c2ccnc(Nc3ccc(C#N)cc3)n2)cc1` (configuration not stated) gave an IC50 in data set [5] of 160 nM. Moreover, the “Ratio EC50” value in data set [6] and in data set [7] was 2 in each case. Also, the EC50 in data set [1] was more than 39.9 µM; in data set [2] it was more than 39.9 µM; in data set [4], 67 nM. The CC50 at 120 h in data set [3] is 39.3 µM.
In the case of `CC(O)(c1ccc(F)cc1)c1ccnc(Nc2ccc(C#N)cc2)n1` (configuration not stated), the EC50 in data set [1] was more than 43.1 µM; in data set [2] it was more than 43.1 µM; in data set [4], 2500 nM. For the same compound, the CC50 at 120 h in data set [3] was 43.1 µM.
With `CC(O)(c1ccc(Cl)cc1)c1ccnc(Nc2ccc(C#N)cc2)n1` (configuration not stated), the EC50 in data set [1] is more than 39 µM; in data set [2] it was more than 39 µM; in data set [4], 317 nM. This compound showed a CC50 at 120 h in data set [3] of 39 µM.
For the compound `CC(O)(c1ccc(Br)cc1)c1ccnc(Nc2ccc(C#N)cc2)n1` (configuration not stated), the results for the EC50 in data set [1], in data set [2] and in data set [4] were more than 28.2 µM, more than 28.2 µM and 305 nM, respectively. The half-maximal cytotoxic concentration (CC50) at 120 h in data set [3] is 28.2 µM.
In turn, `CC(O)(c1cccc(F)c1)c1ccnc(Nc2ccc(C#N)cc2)n1` (configuration not stated) came in with an IC50 in data set [5] of 630 nM. The concentration giving a half-maximal response (EC50) in data set [1] is more than 53.2 µM; in data set [2], more than 49.6 µM; in data set [4], 201 nM. In data set [3], this compound yielded a half-maximal cytotoxic concentration (CC50) at 120 h of 53.2 µM.
For the compound `CC(O)(c1cccc(Cl)c1)c1ccnc(Nc2ccc(C#N)cc2)n1` (configuration not stated), the values for the concentration for a half-maximal effect (EC50) in data set [1], in data set [2] and in data set [4] were more than 37.5 µM, more than 37.5 µM and 257 nM, respectively. Besides, the cytotoxic concentration (CC50) at 120 h in data set [3] stood at 37.5 µM.
Take `CC(O)(c1cccc(Br)c1)c1ccnc(Nc2ccc(C#N)cc2)n1` (configuration not stated): the IC50 in data set [5] turned out to be 390 nM. Besides, the 50% effective concentration (EC50) is more than 33.7 µM in data set [1], more than 33.7 µM in data set [2] and 191 nM in data set [4]. Moreover, in data set [3], the CC50 at 120 h came out at 33.7 µM.
Take `Cc1cnc(Nc2ccc(C#N)cc2)nc1C(C)(O)c1ccc(F)cc1` (configuration not stated): the concentration for a half-maximal effect (EC50) is more than 61.5 µM in data set [2] and more than 61500 nM in data set [4]. Besides, the cytotoxic concentration (CC50) at 120 h in data set [3] amounted to 61.5 µM.
For the compound `Cc1cc(C(C)(O)c2ccc(F)cc2)nc(Nc2ccc(C#N)cc2)n1` (configuration not stated), the half-maximal effective concentration (EC50) in data set [1] is more than 38.2 µM; in data set [2], more than 38.2 µM; in data set [4], 3550 nM. For the same compound, the CC50 at 120 h in data set [3] is 38.2 µM.
Consider `CC(O)(c1ccnc(Nc2ccc(C#N)cc2)n1)c1cccc2ccccc12` (configuration not stated), for which the concentration for a half-maximal effect (EC50) is more than 30.7 µM in data set [1], more than 30.7 µM in data set [2] and 388 nM in data set [4]. The CC50 at 120 h in data set [3] is 30.7 µM.
As for `C=CC(O)(c1ccc(Br)cc1)c1ccnc(Nc2ccc(C#N)cc2)n1` (configuration not stated), the EC50 in data set [1] is more than 31.7 µM; in data set [2], more than 31.7 µM; in data set [4], 355 nM. Besides, in data set [3], the CC50 at 120 h was 31.7 µM.
On to `CCC(O)(c1ccc(Br)cc1)c1ccnc(Nc2ccc(C#N)cc2)n1` (configuration not stated), for which the EC50 in data set [1] was more than 31.3 µM; in data set [2], more than 31.3 µM; in data set [4] it was 2070 nM. Besides, in data set [3], the cytotoxic concentration (CC50) at 120 h is 31.3 µM.
Consider `N#Cc1ccc(Nc2nccc(C(O)(c3ccc(Br)cc3)C3CC3)n2)cc1` (configuration not stated), for which the results for the EC50 in data set [1], in data set [2] and in data set [4] were more than 33.2 µM, more than 33.2 µM and 3110 nM, respectively. The compound also displayed a cytotoxic concentration (CC50) at 120 h in data set [3] of 33.2 µM.
In the case of `Cc1cnc(Nc2ccc(C#N)cc2)nc1C(C)(O)c1ccc(C(C)(C)C)cc1` (configuration not stated), the concentration for a half-maximal effect (EC50) in data set [1] was more than 31.1 µM; in data set [2], more than 31.1 µM; in data set [4], 7210 nM. The compound further displayed a CC50 at 120 h in data set [3] of 31.1 µM.
Consider `Cc1cc(C(C)(O)c2ccc(C(C)(C)C)cc2)nc(Nc2ccc(C#N)cc2)n1` (configuration not stated), for which the values for the concentration for a half-maximal effect (EC50) in data set [1], in data set [2] and in data set [4] were more than 30.4 µM, more than 30.4 µM and 1250 nM, respectively. In data set [3], this compound gave a CC50 at 120 h of 30.4 µM.
Regarding `CC(C)Nc1cccnc1N1CCN(C(=O)c2cc3cc(NS(C)(=O)=O)ccc3[nH]2)CC1` [DELAVIRDINE], the EC50 in data set [1] was more than 43.8 µM; in data set [4], 810 nM. In data set [3], the CC50 at 120 h was more than 43.8 µM.
Take `O=C1Nc2ccc(Cl)cc2[C@@](C#CC2CC2)(C(F)(F)F)O1` [EFAVIRENZ]: the CC50 at 120 h in data set [3] was more than 6.3 µM. Moreover, the EC50 in data set [4] amounted to 22 nM.
As for `Cc1cc(C#N)cc(C)c1Oc1nc(Nc2ccc(C#N)cc2)nc(N)c1Br` [ETRAVIRINE], in data set [2], the EC50 was more than 27.8 µM.
For `Cc1ccnc2c1NC(=O)c1cccnc1N2C1CC1` [NEVIRAPINE], the 50% effective concentration (EC50) in data set [1] amounted to 0.901 µM. The CC50 at 120 h in data set [3] was more than 15 µM.
The like results for `Cc1cn([C@H]2C[C@H](N=[N+]=[N-])[C@@H](CO)O2)c(=O)[nH]c1=O` [ZIDOVUDINE] were, in that order, 0.008 µM and more than 93.6 µM.

Broadly, the EC50 is the midpoint of the concentration-response curve. As usually defined, the CC50 is the concentration that lowers cell viability or growth by half. As a reminder, the IC50 is the concentration needed to halve the response being measured.
